Where two headings read alike, the source gives them in different places. Values belong to the molecule of their own block, whether it stands above or below them.
How the values were obtained:
[1] = rats; cited from earlier work
[2] = Pharmacokinetic study of [^14C] DHA and unchanged DHA, single i.v. dose; assay type: in vivo, rats
Protocol: Traditional PK studies involve intermittent blood sampling and subsequent determination of drug concentrations in whole blood and plasma. The Culex automated blood sampler provides a way for blood withdrawal at preprogrammed intervals, which is more accurate and less labor intensive. Six rats in the PK group were implanted with a jugular vein catheter under an isofluorane anesthaesia. After the surgery, rats were allowed to recover for 96 hours with free access to food and water. The rats were dosed single i.v. at 3 mg/ml/kg with [^14C] DHA (20 μCi/kg), which was prepared as a 25% cremophore/0.9% saline solution, through the tail vein. […] PK evaluation of [^14C] DHA in plasma and whole blood, as well as unchanged DHA in plasma was conducted in individual rats.
Total radioactivity in the collected tissue samples were quantified in duplicate. Weighed tissue aliquots (~0.2 g) were digested overnight in 2 ml of Solvable® tissue solubilizer (Perkin-Elmer Life and Analytical Sciences, Boston, MA) at 50°C. Coloured samples were decolourized by adding a maximum of 0.2 ml of 30% H2O2 for 30–60 minutes. Scintillation cocktail (Hyonic Fluor; Perkin-Elmer Boston. Massachusetts, USA) was then added and radioactivity determined in a Perkin-Elmer Tri-Carb 3100 TR scintillation spectrophotometer (Packard Instrument Co., Downers Grove, Illinois, USA). Faeces and intestinal contents were thoroughly homogenized before taking aliquots. Plasma was also analysed using the HPLC-ECD system to measure the concentration of unchanged DHA, as described by Li et al.
The analysis of cold DHA in plasma was performed according to a previously described HPLC method with the following modifications: for simultaneous determination of artemisinin and DHA (artemisinin as an internal standard), the Agilent Eclipse XDB-C18 column 5 μm (4.6 × 150 mm) was used with an isocratic mobile phase consisting of 40% acetonitrile: 60% ESA Acid Metabolite A (70–4835) in the reductive mode (-400 mV) for the quantification of DHA. Validation and reproducibility were evaluated and a lower limit of quantitation (LLQ) of 2.31 ng/ml for DHA was determined. The inter- and intra-day coefficient of variation for accuracy and precision were all within ± 10%.
For pharmacokinetics, the concentration-time data of [^14C] DHA in plasma and whole blood collected during the 192 hour treatment period was fitted to a three-compartment open model using a nonlinear, extended least-square fitting procedure (WinNonlin 5.2, Pharsight Corporation, Cary, NC) using weighted (1/concentration) nonlinear regression. The area under the curve (AUC) was determined by the linear trapezoidal rule with extrapolation to infinity based on the concentration of the last time point divided by the terminal rate constant. Extrapolations to time zero were done using zero concentration for intravenous dosing and using C0 values determined from the three-compartment model equation at time zero by i.v. route. Mean clearance rate (CL) was determined by dividing the dose by the AUCinf for i.v. injection. Mean residence time (MRT) was determined by dividing the area under the first moment curve (AUMC) by the AUC. The volume of distribution at steady state (Vss) was calculated as the product of CL and MRT. The concentration-time data of unchanged DHA was fitted to a two-compartment open model. Statistical analysis was conducted with Microsoft Excel using a Student's t-test for dependent samples to compare means of paired and unpaired samples between two groups.

human plasma proteins = assay: Protein binding of [^14C] DHA, equilibrium dialysis, human plasma; assay type: in vitro ADME; conditions: both sexes; undiluted human plasma, 0.15 to 57800 ng/ml, 37°C, five hours; read-out: plasma protein binding percentage
Protocol: (§1) Human blood samples (five men and five women) were freshly obtained from subject volunteers at the Department of Clinical Trials, WRAIR. Rat samples were freshly collected from five male and five female rats. Equilibrium dialysis was performed using Teflon dialysis chambers and Diachema standard membranes as described by Li and Hümpel. The GD-4/90 Equilibrium Dialyzer (MM Developments, Ottawa) contained 20 micro-dialysis cells (2.0 ml/chamber). The molecular weight cutoff for dialysis membranes was 5000 D. Equilibrium was reached after four hours, when cells were rotated at 16 rpm and 37°C. Drugs were dissolved in plasma samples with various concentrations (0.15 – 57800 ng/ml) and all experiments were carried out for five hours.

rat plasma proteins = assay: Protein binding of [^14C] DHA, equilibrium dialysis, rat plasma; assay type: in vitro ADME
Protocol: as §1

[3] = Mass balance and urinary/faecal elimination of [^14C] DHA; assay type: in vivo, rats; conditions: rats i.v.
Protocol: Metabolic cages were washed with a solution of 2% Count-off® (Perkin-Elmer Life and Analytical Sciences, Boston, Massachusetts, USA) and the volume was measured. Duplicate portions (0.1 ml urine; 1 ml cage rinse) of each sample were radio-assayed after the addition of scintillation cocktail. The weights of individual faecal samples were obtained and the samples were subsequently homogenized in four volumes of de-ionized water. Quadruplicate portions (1.0 ml) of each homogenate were decolourized with 30% hydrogen peroxide, and digested with Solvable® tissue solubilizer. After acidification with glacial acetic acid and addition of scintillation cocktail, samples were assayed for radioactivity. The samples were kept in at -20°C for two weeks prior to analysis.

[4] = unchanged DHA in plasma, rats single i.v. 3 mg/kg

Compound: C[C@H]1[C@H](OC(=O)CCC(=O)O)O[C@@H]2O[C@@]3(C)CC[C@H]4[C@H](C)CC[C@@H]1[C@@]24OO3 [Artesunate]
plasma half-life of unchanged AS, first phase [1]: 8.4 min

AUC(0-inf) ([2]; rat, iv, unchanged DHA in plasma, two-compartment, rats single i.v. 3 mg/kg): 933 ± 125 ng·h/mL
MRT ([2]; rat, iv, unchanged DHA in plasma, two-compartment, rats single i.v. 3 mg/kg, read-out: MRT): 29.4 ± 7.2 min
Vd ([2]; rat, iv, unchanged DHA in plasma, two-compartment, rats single i.v. 3 mg/kg, read-out: Vss): 1.66 ± 0.54 L/kg
AUC ([2]; rat, iv, unchanged DHA in plasma, rats i.v. 3 mg/kg): 933 ng·h/mL
Tmax ([2]; rat, iv, unchanged DHA in plasma, rats single i.v. 3 mg/kg, read-out: Tmax): 1.2 min
clearance ([2]; rat, plasma, iv, 3 mg/kg, unchanged DHA in plasma, two-compartment, rats single i.v. 3 mg/kg): 55.8 mL/min/kg
Cmax ([2]; rat, plasma, iv, 3 mg/kg, unchanged DHA in plasma, two-compartment, rats single i.v. 3 mg/kg, read-out: Cmax): 2000 ± 507 ng/mL
half-life ([2]; rat, plasma, iv, 3 mg/kg, unchanged DHA in plasma, two-compartment, rats single i.v. 3 mg/kg, read-out: t1/2 – alpha (converted)): 15 ± 2.4 min
half-life ([2]; rat, plasma, iv, 3 mg/kg, unchanged DHA in plasma, two-compartment, rats single i.v. 3 mg/kg, read-out: t1/2 – beta (terminal) (converted)): 61.8 ± 11.4 min
Cmax ([2]; rat, plasma, iv, 3 mg/kg, unchanged DHA in plasma, rats single i.v. 3 mg/kg, read-out: Cmax at first peak): 2000 ± 507 ng/mL
Cmax ([2]; rat, plasma, iv, 3 mg/kg, unchanged DHA in plasma, rats single i.v. 3 mg/kg, read-out: Cmax at second peak): 1640 ± 468 ng/mL
duration of total radioactivity (long-lasting metabolites) ([2]; rats, plasma, urine and faeces, single i.v. 3 mg/20 μCi/kg): > 192 h
time to complete elimination of unchanged DHA ([2]; rats, single i.v. 3 mg/kg): ≤ 6 h
CL ([2]; unchanged DHA in plasma, two-compartment, rats single i.v. 3 mg/kg, 3 mg/kg): 55.8337 ± 7.0562 mL/min/kg
time of second peak ([2]; unchanged DHA in plasma, rats i.v. 3 mg/kg): 23 min
time of first peak [2, 4]: 0.02 h
time of second peak [2, 4]: 22.8 min
fraction unbound at 5 h (human plasma proteins): 0.18 to 0.24
fraction unbound at 5 h (rat plasma proteins; both sexes, undiluted rat plasma, 0.15 to 57800 ng/ml, 37°C, five hours, read-out: plasma protein binding percentage): 0.18 to 0.24
dependence of binding capacity on drug concentration (rat plasma proteins; rat plasma): not significantly different
elimination via metabolism (hydrolysis and oxidation) [3]: 99%
unchanged DHA eliminated by direct excretion from kidneys [3]: < 1 % of dose
Compound: C[C@H]1[C@@H](O)O[C@@H]2O[C@@]3(C)CC[C@H]4[C@H](C)CC[C@@H]1[C@@]24OO3 [DHA, 10'dihydro-artemisinin]

From PMC2694832, “Pharmacokinetics, tissue distribution and mass balance of radiolabeled dihydroartemisinin in male rats” (Malaria Journal, 2009)
